Our source for the IC50 values is US9018395B2, “Pyrazolopyridine and pyrazolopyrimidine derivatives as melanocortin-4 receptor modulators” (Université de Montréal, priority 2011, dated 2015).

Each structure is given as a SMILES string.

Broadly, the IC50 is the concentration that gives 50% inhibition. A higher IC50 goes with lower potency.

The target of this assay is T1, wild-type human melanocortin 4 receptor (WT-hMC4R) (Homo sapiens, UniProt P32245).
T1 construct: expressed in transfected cells; cDNA from UMR cDNA resource center
T1 sequence (P32245 whole entry): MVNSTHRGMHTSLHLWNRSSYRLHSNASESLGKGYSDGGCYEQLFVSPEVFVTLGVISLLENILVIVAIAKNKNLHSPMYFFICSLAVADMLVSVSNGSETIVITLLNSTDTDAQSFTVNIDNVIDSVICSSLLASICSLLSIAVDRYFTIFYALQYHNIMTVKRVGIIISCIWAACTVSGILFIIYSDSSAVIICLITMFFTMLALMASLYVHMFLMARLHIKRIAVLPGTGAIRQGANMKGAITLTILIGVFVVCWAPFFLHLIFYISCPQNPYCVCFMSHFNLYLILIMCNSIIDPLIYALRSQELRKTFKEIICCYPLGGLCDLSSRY
As to the kind of experiment: Cyclic AMP assay (HTRF), antagonist competition against NDP-α-MSH. Conditions: HEK293T cells expressing double-tagged WT-hMC4R; cAMP accumulation; 1 hour compound then 4 nM NDP-α-MSH 30 min. In kind it is cell-based. How it is done: Intracellular cyclic 3′-5′ adenosine monophosphate (cAMP) accumulation was measured using a competitive immunoassay based on HTRF (Homogeneous Time-Resolved Fluorescence) technology (cAMP dynamic-2, Cis-Bio).
HEK293T stable cell line expressing double-tagged WT-hMC4R construct were collected and washed in cAMP buffer (1XD-PBS pH 7.4, 0.1% glucose). 40,000 cells/well were then dispensed in 96-well plates in cAMP buffer [1XD-PBS, 1% BSA, 0.1% Glucose, 0.75 mM 3-isobutyl-1methyl-xanthine (IBMX, Sigma)] and incubated either for antagonist competition assay: 1 hour at 37° C. with various concentrations of compound [0.01 nM-10 μM] followed by 30 min incubation at 37° C. with 4 nM of NDP-α-MSH (Sigma) or for agonist assay: 1 hour at 37° C. with various concentrations of compound [0.01 nM-10 μM]. 10,000 cells were transferred in 384-well plates, lysed and incubated with cAMP labeled with the dye d2 and anti-cAMP M-Antibody labeled with Cryptate following the manufacturer's protocol.
Reading of HTRF signal was performed on Artemis TR-FRET plate reader (Cosmo Bio).
All curve fitting was conducted using non-linear regression analyses from PRISM (version 4.0c, GraphPad Inc.) and the determination of Rmax and EC50 or IC50 parameters were obtained from sigmoidal dose-response phase (variable slope) equation.
A cDNA encoding a wild-type human MC4R with a 3 tandem copies of Hemaglutinine (HA) epitote sequence from UMR cDNA resource center was modified using known techniques in the art (e.g., PCR, cloning) to fused in frame at the C-terminal a venus-Yellow Fluorescent Protein (YFP) cDNA.
The resultant cDNA was then subcloned in eukaryotic expression vector, e.g. pcDNA 3.1(+) (Invitrogen).
The double tagged WT-hMC4R was transfected in HEK293T cells with lipofectamine (Invitrogen) following the manufacturer's instructions and permanently transfected clonal cell lines were selected by resistance to the neomycin analog G418.
HEK293T stable cell line expressing wild-type human melanocortin 4 receptor (WT-hMC4R) containing an N-terminal 3xHA epitope tag and an intracellular C-terminal venus-yellow fluorescent protein (v-YFP) were maintained at 37° C. in humidified air containing 5% CO2 in Dulbecoo's modified Eagle's medium (DMEM) supplemented with 10% fetal bovine serum (FBS), 100 U/ml penicillin/streptomycin (DMEM complete/10% FBS). Cells were generally at 70%-80% confluence on the day of assay.
`CC(C)CCN(CCC(C)C)C(=O)c1ccn2nc(-c3cccc(C#N)c3)c(CCCN3CCCCC3)c2c1` [Example 92] displayed an IC50 below 500 nM.

In the case of `CC(C)CCN(CCC(C)C)C(=O)c1ccn2nc(-c3ccc(Br)cc3)c(/C=C/CN3CCOCC3)c2c1` [Example 93], the IC50 is 5000 to 15000 nM. Compound `CC(C)CCN(CCC(C)C)C(=O)c1ccn2nc(-c3cccc(-c4nnn[nH]4)c3)c(CCCN3CCCCC3)c2c1` [Example 94] came in with a 50% inhibitory concentration (IC50) of 500 to 1000 nM. `CC(C)CCN(CCC(C)C)C(=O)c1ccn2nc(-c3ccc(C(N)=O)cc3)c(CCCN3CCCCC3)c2c1` [Example 95] displayed an IC50 below 500 nM. The compound `CC(C)CCN(CCC(C)C)C(=O)c1ccn2nc(-c3ccc(C#N)cc3)c(CCCN3CCCCC3)c2c1` [Example 96] displayed a half-inhibitory concentration (IC50) below 500 nM. To `COc1ccc(Cl)cc1-c1nn2ccc(C(=O)N(CCC(C)C)CCC(C)C)cc2c1C#CCCN1CCCCC1` [Example 97] belongs 1000 to 5000 nM; to `CC(C)CCN(CCC(C)C)C(=O)c1ccn2nc(-c3ccc(-c4nnn[nH]4)cc3)c(CCCN3CCCCC3)c2c1` [Example 98], 1000 to 5000 nM; to `COc1ccc(-c2nn3ccc(C(=O)N(CCC(C)C)CCC(C)C)nc3c2/C=C/CN2CCCC2)cc1` [Example 99], 1000 to 5000 nM.

As to `CCN(CC)C/C=C/c1c(-c2ccc(OC)cc2)nn2ccc(C(=O)N(CCC(C)C)CCC(C)C)nc12` [Example 100], the IC50 was 5000 to 15000 nM.

As for `COc1ccc(Cl)cc1-c1nn2ccc(C(=O)N(CCC(C)C)CCC(C)C)cc2c1C#CCN1CCCCC1` [Example 101], the IC50 is below 500 nM. In turn, `CC(C)CCN(CCC(C)C)C(=O)c1ccn2nc(-c3ccc(/C(N)=N/O)cc3)c(CCCN3CCCCC3)c2c1` [Example 102] gave an IC50 below 500 nM. Compound `CC(C)CCN(CCC(C)C)C(=O)c1ccn2nc(-c3ccc(-c4noc(=O)[nH]4)cc3)c(CCCN3CCCCC3)c2c1` [Example 103] displayed an IC50 of 500 to 1000 nM. `COc1ccc(-c2nn3ccc(C(=O)N(CCC(C)C)CCC(C)C)nc3c2CCCN2CCCC2)cc1` [Example 104] registered an IC50 of 5000 to 15000 nM. For `CCN(CC)CCCc1c(-c2ccc(OC)cc2)nn2ccc(C(=O)N(CCC(C)C)CCC(C)C)nc12` [Example 105], the IC50 was in the range of 5000 to 15000 nM.

In turn, `COc1ccc(-c2nn3ccc(C(=O)N(CCC(C)C)CCC(C)C)cc3c2/C=C/CN2CCCCCC2)cc1` [Example 106] returned an IC50 of 1000 to 5000 nM. As to `CC(=O)O/N=C(\N)c1ccc(-c2nn3ccc(C(=O)N(CCC(C)C)CCC(C)C)cc3c2CCCN2CCCCC2)cc1` [Example 107], the IC50 was below 500 nM. `COc1ccc(-c2nn3ccc(C(=O)N(CCC4CC4)CCC4CC4)cc3c2/C=C/CN2CCCCC2)cc1` [Example 108] came in with an IC50 of 1000 to 5000 nM. In turn, `COc1ccc(-c2nn3ccc(C(=O)N(CCC(C)C)CCC(C)C)cc3c2C#CCN2CCCCC2)cc1` [Example 109] gave a half-inhibitory concentration (IC50) of 1000 to 5000 nM. The compound `CCCCN(C/C=C/c1c(-c2ccc(OC)cc2)nn2ccc(C(=O)N(CCCC)CCCC)cc12)CCCC` [Example 110] gave an IC50 of 5000 to 15000 nM. To `COc1ccc(-c2nn3ccc(C(=O)N(CCC(C)C)CCC(C)C)cc3c2CCCN2CCCCCC2)cc1` [Example 111] belongs 1000 to 5000 nM. To `CCCCN(CCCC)CCCc1c(-c2ccc(OC)cc2)nn2ccc(C(=O)N(CCCC)CCCC)cc12` [Example 112] belongs 1000 to 5000 nM. `COc1ccc(Cl)cc1-c1nn2ccc(C(=O)N(CCC(C)C)CCC(C)C)cc2c1/C=C/CN1CCCCC1` [Example 113] returned an IC50 of 1000 to 5000 nM. Consider `COc1ccc(Cl)cc1-c1nn2ccc(C(=O)N(CCC(C)C)CCC(C)C)cc2c1CCCN1CCCCC1` [Example 114], for which the IC50 was 1000 to 5000 nM. For `CC(=O)c1ccc(-c2nn3ccc(C(=O)N(CCC(C)C)CCC(C)C)cc3c2/C=C/CN2CCOCC2)cc1` [Example 115], the IC50 is 1000 to 5000 nM. The same measure for `COc1ccc(Cl)cc1-c1nn2ccc(C(=O)N(CCC(C)C)CCC(C)C)cc2c1CCCN1CCCC1` [Example 116]: 1000 to 5000 nM. To `COc1ccc(NC(=O)c2nn3ccc(C(=O)N(CCC(C)C)CCC(C)C)cc3c2/C=C/CN2CCCCC2)cc1` [Example 117] belongs 1000 to 5000 nM; to `CC(C)CCN(CCC(C)C)C(=O)c1ccn2nc(-c3ccc(C(C)O)cc3)c(CCCN3CCOCC3)c2c1` (centres unmarked) [Example 118], 1000 to 5000 nM; to `CC(C)CCN(CCC(C)C)C(=O)c1ccn2nc(C(C)(C)C)c(CCCN3CCCCC3)c2c1` [Example 119], below 500 nM. Consider `CC(C)CCN(CCC(C)C)C(=O)c1ccn2nc(-c3ccc(C(=N)N)cc3)c(CCCN3CCCCC3)c2c1` [Example 120], for which the IC50 is below 500 nM. Compound `CC(=O)c1ccc(-c2nn3ccc(C(=O)N(CCC(C)C)CCC(C)C)cc3c2CCCN2CCOCC2)cc1` [Example 121] yielded an IC50 of 1000 to 5000 nM. On to `CCOC(=O)c1ccc(NC(=O)c2nn3ccc(C(=O)N(CCC(C)C)CCC(C)C)cc3c2/C=C/CN2CCCCC2)cc1` [Example 122], for which the IC50 was in the range of 1000 to 5000 nM. On to `COc1ccc(-c2nn3ccc(C(=O)N(CCC(C)C)CCC(C)C)cc3c2/C=C/CN2CCOCC2)cc1` [Example 123], for which the 50% inhibitory concentration (IC50) is 1000 to 5000 nM. The same measure for `COc1ccc(-c2nn3ccc(C(=O)N(CCC(C)C)CCC(C)C)cc3c2CCCN2CCOCC2)cc1` [Example 124]: below 500 nM.

As to `CCOC(=O)c1ccc(NC(=O)c2nn3ccc(C(=O)N(CCC(C)C)CCC(C)C)cc3c2CCCN2CCCCC2)cc1` [Example 125], the IC50 was in the range of 1000 to 5000 nM.

`CC(C)CCN(CCC(C)C)C(=N)c1ccn2nc(-c3ccc(C(N)=O)cc3)c(CCCN3CCCCC3)c2c1` [Example 126] had a 50% inhibitory concentration (IC50) below 500 nM.

Compound `CC(C)CCN(CCC(C)C)C(=N)c1ccn2nc(-c3ccccc3)c(CCCN3CCCCC3)c2c1` [Example 127] displayed an IC50 of 500 to 1000 nM. The compound `CC(C)CCN(CCC(C)C)C(=O)c1ccn2nc(C(C)(C)C)c(/C=C/CN3CCCCC3)c2c1` [Example 128] showed an IC50 of 1000 to 5000 nM. For the compound `COc1ccc(-c2nn3ccc(C(=O)N(CCC(C)C)CCC(C)C)cc3c2CCCN(C)C2CCNCC2)cc1` [Example 129], the IC50 was 500 to 1000 nM.

With `COc1ccc(-c2nn3ccc(C(=O)N(CCC4CC4)CCC4CC4)cc3c2CCCN2CCCCC2)cc1` [Example 130], the IC50 lay in the range of 500 to 1000 nM. Take `COc1ccc(-c2nn3ccc(N(CCC(C)C)CCC(C)C)cc3c2CCCN2CCCCC2)cc1` [Example 131]: the IC50 lay within 5000 to 15000 nM. The same measure for `CC(C)CCN(CCC(C)C)C(=O)c1ccn2nc(Br)c(/C=C/CN3CCCCC3)c2c1` [Example 132]: 1000 to 5000 nM; for `CC(C)CCN(CCC(C)C)C(=O)c1ccn2nc(C(=O)Nc3ccc(C(=O)N4CCOCC4)cc3)c(CCCN3CCCCC3)c2c1` [Example 133]: 5000 to 15000 nM. `CC(C)CCN(CCC(C)C)C(=O)c1ccn2nc(-c3ccc(-c4noc(-c5ccccc5)n4)cc3)c(CCCN3CCCCC3)c2c1` [Example 134]: the IC50 was 1000 to 5000 nM.

`Cc1nc(-c2ccc(-c3nn4ccc(C(=O)N(CCC(C)C)CCC(C)C)cc4c3CCCN3CCCCC3)cc2)no1` [Example 135] had an IC50 below 500 nM. The same measure for `CC(C)CCN(CCC(C)C)C(=O)c1ccn2nc(-c3ccc(-c4noc(C(F)(F)F)n4)cc3)c(CCCN3CCCCC3)c2c1` [Example 136]: 1000 to 5000 nM; for `COc1ccc(Cl)cc1-c1nn2ccc(C(=O)N(CCC(C)C)CCC(C)C)cc2c1-c1ccc(CN2CCCCC2)cc1` [Example 137]: 1000 to 5000 nM; for `COc1ccc(Nc2nn3ccc(C(=O)N(CCC(C)C)CCC(C)C)cc3c2/C=C/CN2CCCCC2)cc1` [Example 138, (E)-N,N-diisopentyl-2-((4-methoxphenyl)amino)-3-(3-(piperidin-1-yl)prop-1-en-1-yl)pyrazolo[1,5-a]pyridine-5-carboxamide]: below 500 nM.

`CC(C)CCN(CCC(C)C)C(=O)c1ccn2nc(-c3ccc(-c4noc(-c5ccncc5)n4)cc3)c(CCCN3CCCCC3)c2c1` [Example 139]: the IC50 is below 500 nM.

The compound `CC(C)CCN(CCC(C)C)C(=O)c1ccn2nc(-c3ccc(-c4noc(Cc5ccc(F)cc5)n4)cc3)c(CCCN3CCCCC3)c2c1` [Example 140] showed a 50% inhibitory concentration (IC50) of 5000 to 15000 nM. To `CC(C)CCN(CCC(C)C)C(=O)c1ccn2nc(C(=O)N3CCOCC3)c(CCCN3CCCCC3)c2c1` [Example 141, N,N-diisopentyl-2-(morpholine-4-carbonyl)-3-(3-(piperidin-1-yl)propyl)pyrazolo[1,5-a]pyridine-5-carboxamide] belongs 5000 to 15000 nM.
